# Source: PMC9133015 (Nature Communications, 2022)
# Values joined by “and” are separate entries in the source; they are usually repeats but may differ in a detail not shown here. Equal values may be shown once.
# Assays:
# Experiment in all cases: Kinase inhibitor specificity profiling (Reaction Biology Corporation)
# Format in all cases: biochemical
# Set-up in all cases: % Enzyme Activity (relative to DMSO controls): concentration or dose not given beside the values
# [1] = target: T1, panel of 370 protein kinases (Homo sapiens, UniProt O75385); settings: kinase ULK1
# T1 construct: purchased Reaction Biology Corporation (assay service)
# [2] = target: T2, panel of 370 protein kinases (Homo sapiens, UniProt P08631); settings: 2 h, kinase HCK; read-out: % Enzyme Activity (relative to DMSO controls)
# T2 construct: purchased Reaction Biology Corporation (assay service)
# [3] = target: T3, panel of 370 protein kinases (Homo sapiens, UniProt P12931); settings: 2 h, kinase c-Src; read-out: % Enzyme Activity (relative to DMSO controls)
# T3 construct: purchased Reaction Biology Corporation (assay service)
# [4] = target: T4, panel of 370 protein kinases (Homo sapiens, UniProt P29323); settings: kinase EPHB2
# T4 construct: purchased Reaction Biology Corporation (assay service)
# [5] = target: T5, panel of 370 protein kinases (Homo sapiens, UniProt P30291); settings: 2 h, kinase WEE1; read-out: % Enzyme Activity (relative to DMSO controls)
# T5 construct: purchased Reaction Biology Corporation (assay service)
# [6] = target: T6, panel of 370 protein kinases (Homo sapiens, UniProt P35968); settings: 2 h, kinase KDR/VEGFR2; read-out: % Enzyme Activity (relative to DMSO controls)
# T6 construct: purchased Reaction Biology Corporation (assay service)
# [7] = target: T7, panel of 370 protein kinases (Homo sapiens, UniProt P37023); settings: 2 h, kinase ALK1/ACVRL1; read-out: % Enzyme Activity (relative to DMSO controls)
# T7 construct: purchased Reaction Biology Corporation (assay service)
# [8] = target: T8, panel of 370 protein kinases (Homo sapiens, UniProt P37173); settings: 2 h, kinase TGFBR2; read-out: % Enzyme Activity (relative to DMSO controls)
# T8 construct: purchased Reaction Biology Corporation (assay service)
# [9] = target: T9, panel of 370 protein kinases (Homo sapiens, UniProt P45985); settings: 2 h, kinase MKK4; read-out: % Enzyme Activity (relative to DMSO controls)
# T9 construct: purchased Reaction Biology Corporation (assay service)
# [10] = target: T10, panel of 370 protein kinases (Homo sapiens, UniProt P46734); settings: 2 h, kinase MEK3; read-out: % Enzyme Activity (relative to DMSO controls)
# T10 construct: purchased Reaction Biology Corporation (assay service)
# [11] = target: T11, panel of 370 protein kinases (Homo sapiens, UniProt P51956); settings: 2 h, kinase NEK3; read-out: % Enzyme Activity (relative to DMSO controls)
# T11 construct: purchased Reaction Biology Corporation (assay service)
# [12] = target: T12, panel of 370 protein kinases (Homo sapiens, UniProt Q02156); settings: 2 h, kinase PKCepsilon; read-out: % Enzyme Activity (relative to DMSO controls)
# T12 construct: purchased Reaction Biology Corporation (assay service)
# [13] = target: T13, panel of 370 protein kinases (Homo sapiens, UniProt Q13177); settings: 2 h, kinase PAK2; read-out: % Enzyme Activity (relative to DMSO controls)
# T13 construct: purchased Reaction Biology Corporation (assay service)
# [14] = target: T14, panel of 370 protein kinases (Homo sapiens, UniProt Q15375); settings: 2 h, kinase EPHA7; read-out: % Enzyme Activity (relative to DMSO controls)
# T14 construct: purchased Reaction Biology Corporation (assay service)
# [15] = target: T15, panel of 370 protein kinases (Homo sapiens, UniProt Q86UX6); settings: 2 h, kinase STK32C/YANK3; read-out: % Enzyme Activity (relative to DMSO controls)
# T15 construct: purchased Reaction Biology Corporation (assay service)
# [16] = target: T16, panel of 370 protein kinases (Homo sapiens, UniProt Q8N4C8); settings: 2 h, kinase MINK/MINK1; read-out: % Enzyme Activity (relative to DMSO controls)
# T16 construct: purchased Reaction Biology Corporation (assay service)
# [17] = target: T17, panel of 370 protein kinases (Homo sapiens, UniProt Q9BYP7); settings: 2 h, kinase WNK3; read-out: % Enzyme Activity (relative to DMSO controls)
# T17 construct: purchased Reaction Biology Corporation (assay service)
# [18] = target: T18, panel of 370 protein kinases (Homo sapiens, UniProt Q9BYT3); settings: 2 h, kinase STK33; read-out: % Enzyme Activity (relative to DMSO controls)
# T18 construct: purchased Reaction Biology Corporation (assay service)
# [19] = target: T19, panel of 370 protein kinases (Homo sapiens, UniProt Q9NY57); settings: 2 h, kinase STK32B/YANK2; read-out: % Enzyme Activity (relative to DMSO controls)
# T19 construct: purchased Reaction Biology Corporation (assay service)
# [20] = target: T20, panel of 370 protein kinases (Homo sapiens, UniProt Q9NYL2); settings: 2 h, kinase ZAK/MLTK; read-out: % Enzyme Activity (relative to DMSO controls)
# T20 construct: purchased Reaction Biology Corporation (assay service)
# [21] = target: T21, panel of 370 protein kinases (Homo sapiens, UniProt Q9UQM7); settings: 2 h, kinase CAMK2a; read-out: % Enzyme Activity (relative to DMSO controls)
# T21 construct: purchased Reaction Biology Corporation (assay service)
# T21 sequence (Q9UQM7 whole entry): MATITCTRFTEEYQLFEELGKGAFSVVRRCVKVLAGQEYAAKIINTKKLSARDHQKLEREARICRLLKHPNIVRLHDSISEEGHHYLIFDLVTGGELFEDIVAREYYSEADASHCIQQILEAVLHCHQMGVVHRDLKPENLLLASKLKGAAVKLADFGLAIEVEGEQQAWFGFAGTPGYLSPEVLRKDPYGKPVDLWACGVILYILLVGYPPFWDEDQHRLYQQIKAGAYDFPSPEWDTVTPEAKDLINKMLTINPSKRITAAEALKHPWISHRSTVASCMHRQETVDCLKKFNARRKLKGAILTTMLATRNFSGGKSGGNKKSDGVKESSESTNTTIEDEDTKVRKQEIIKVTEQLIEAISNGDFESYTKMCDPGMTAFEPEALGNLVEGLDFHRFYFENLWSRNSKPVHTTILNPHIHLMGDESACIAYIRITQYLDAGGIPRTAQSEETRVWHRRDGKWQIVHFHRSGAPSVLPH
# T4 sequence (P29323 19-1055): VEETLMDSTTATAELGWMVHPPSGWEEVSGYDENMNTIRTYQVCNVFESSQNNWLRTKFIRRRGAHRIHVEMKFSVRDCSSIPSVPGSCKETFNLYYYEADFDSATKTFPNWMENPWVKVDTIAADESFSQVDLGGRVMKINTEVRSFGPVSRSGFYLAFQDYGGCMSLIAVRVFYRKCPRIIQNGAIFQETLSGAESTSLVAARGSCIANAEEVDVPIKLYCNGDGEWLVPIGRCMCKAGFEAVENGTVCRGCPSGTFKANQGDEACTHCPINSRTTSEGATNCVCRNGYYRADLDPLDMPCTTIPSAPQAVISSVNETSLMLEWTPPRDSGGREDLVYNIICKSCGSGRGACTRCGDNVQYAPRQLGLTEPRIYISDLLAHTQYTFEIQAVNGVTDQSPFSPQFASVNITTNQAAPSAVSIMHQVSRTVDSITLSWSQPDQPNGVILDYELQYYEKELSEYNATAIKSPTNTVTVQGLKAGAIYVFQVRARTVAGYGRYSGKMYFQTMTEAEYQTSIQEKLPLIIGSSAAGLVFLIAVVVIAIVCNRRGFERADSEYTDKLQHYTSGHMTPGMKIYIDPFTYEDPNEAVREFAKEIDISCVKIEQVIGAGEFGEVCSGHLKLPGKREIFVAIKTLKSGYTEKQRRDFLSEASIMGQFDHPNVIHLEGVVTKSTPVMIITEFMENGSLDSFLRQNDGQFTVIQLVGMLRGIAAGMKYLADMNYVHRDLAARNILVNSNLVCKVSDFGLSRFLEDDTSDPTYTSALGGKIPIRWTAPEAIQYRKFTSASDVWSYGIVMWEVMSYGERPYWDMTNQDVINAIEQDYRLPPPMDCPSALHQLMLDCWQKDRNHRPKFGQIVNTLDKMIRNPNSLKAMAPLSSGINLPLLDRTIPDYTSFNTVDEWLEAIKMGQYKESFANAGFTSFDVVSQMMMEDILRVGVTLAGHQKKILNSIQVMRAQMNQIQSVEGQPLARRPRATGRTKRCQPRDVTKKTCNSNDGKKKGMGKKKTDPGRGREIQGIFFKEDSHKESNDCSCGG
# T1 sequence (O75385 whole entry): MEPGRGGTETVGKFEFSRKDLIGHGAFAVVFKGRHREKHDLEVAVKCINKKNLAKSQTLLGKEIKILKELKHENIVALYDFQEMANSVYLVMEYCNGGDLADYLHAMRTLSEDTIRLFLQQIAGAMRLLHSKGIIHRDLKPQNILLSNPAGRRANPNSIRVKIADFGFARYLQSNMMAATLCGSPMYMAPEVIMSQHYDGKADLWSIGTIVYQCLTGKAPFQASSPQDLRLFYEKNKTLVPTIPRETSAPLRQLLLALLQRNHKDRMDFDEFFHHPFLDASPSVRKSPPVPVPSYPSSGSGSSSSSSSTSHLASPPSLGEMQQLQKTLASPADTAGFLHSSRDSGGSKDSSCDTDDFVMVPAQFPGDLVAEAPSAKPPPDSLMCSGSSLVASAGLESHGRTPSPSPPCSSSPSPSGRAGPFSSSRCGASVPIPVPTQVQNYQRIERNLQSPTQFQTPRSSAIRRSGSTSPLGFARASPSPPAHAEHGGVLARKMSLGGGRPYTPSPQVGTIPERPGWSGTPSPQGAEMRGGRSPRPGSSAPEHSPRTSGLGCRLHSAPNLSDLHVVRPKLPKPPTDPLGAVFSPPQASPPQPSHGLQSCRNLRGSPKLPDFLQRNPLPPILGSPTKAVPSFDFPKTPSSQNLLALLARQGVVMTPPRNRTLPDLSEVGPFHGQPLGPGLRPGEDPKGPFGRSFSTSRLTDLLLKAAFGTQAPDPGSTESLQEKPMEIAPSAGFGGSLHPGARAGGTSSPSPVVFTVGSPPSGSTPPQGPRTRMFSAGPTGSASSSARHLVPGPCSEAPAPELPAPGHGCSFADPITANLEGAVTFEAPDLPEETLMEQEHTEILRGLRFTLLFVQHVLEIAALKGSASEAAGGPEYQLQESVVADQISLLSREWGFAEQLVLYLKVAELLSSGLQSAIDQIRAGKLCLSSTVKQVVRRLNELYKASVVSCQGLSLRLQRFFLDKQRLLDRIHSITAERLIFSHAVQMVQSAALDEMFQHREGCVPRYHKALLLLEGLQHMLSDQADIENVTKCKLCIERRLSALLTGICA
# T17 sequence (Q9BYP7 whole entry): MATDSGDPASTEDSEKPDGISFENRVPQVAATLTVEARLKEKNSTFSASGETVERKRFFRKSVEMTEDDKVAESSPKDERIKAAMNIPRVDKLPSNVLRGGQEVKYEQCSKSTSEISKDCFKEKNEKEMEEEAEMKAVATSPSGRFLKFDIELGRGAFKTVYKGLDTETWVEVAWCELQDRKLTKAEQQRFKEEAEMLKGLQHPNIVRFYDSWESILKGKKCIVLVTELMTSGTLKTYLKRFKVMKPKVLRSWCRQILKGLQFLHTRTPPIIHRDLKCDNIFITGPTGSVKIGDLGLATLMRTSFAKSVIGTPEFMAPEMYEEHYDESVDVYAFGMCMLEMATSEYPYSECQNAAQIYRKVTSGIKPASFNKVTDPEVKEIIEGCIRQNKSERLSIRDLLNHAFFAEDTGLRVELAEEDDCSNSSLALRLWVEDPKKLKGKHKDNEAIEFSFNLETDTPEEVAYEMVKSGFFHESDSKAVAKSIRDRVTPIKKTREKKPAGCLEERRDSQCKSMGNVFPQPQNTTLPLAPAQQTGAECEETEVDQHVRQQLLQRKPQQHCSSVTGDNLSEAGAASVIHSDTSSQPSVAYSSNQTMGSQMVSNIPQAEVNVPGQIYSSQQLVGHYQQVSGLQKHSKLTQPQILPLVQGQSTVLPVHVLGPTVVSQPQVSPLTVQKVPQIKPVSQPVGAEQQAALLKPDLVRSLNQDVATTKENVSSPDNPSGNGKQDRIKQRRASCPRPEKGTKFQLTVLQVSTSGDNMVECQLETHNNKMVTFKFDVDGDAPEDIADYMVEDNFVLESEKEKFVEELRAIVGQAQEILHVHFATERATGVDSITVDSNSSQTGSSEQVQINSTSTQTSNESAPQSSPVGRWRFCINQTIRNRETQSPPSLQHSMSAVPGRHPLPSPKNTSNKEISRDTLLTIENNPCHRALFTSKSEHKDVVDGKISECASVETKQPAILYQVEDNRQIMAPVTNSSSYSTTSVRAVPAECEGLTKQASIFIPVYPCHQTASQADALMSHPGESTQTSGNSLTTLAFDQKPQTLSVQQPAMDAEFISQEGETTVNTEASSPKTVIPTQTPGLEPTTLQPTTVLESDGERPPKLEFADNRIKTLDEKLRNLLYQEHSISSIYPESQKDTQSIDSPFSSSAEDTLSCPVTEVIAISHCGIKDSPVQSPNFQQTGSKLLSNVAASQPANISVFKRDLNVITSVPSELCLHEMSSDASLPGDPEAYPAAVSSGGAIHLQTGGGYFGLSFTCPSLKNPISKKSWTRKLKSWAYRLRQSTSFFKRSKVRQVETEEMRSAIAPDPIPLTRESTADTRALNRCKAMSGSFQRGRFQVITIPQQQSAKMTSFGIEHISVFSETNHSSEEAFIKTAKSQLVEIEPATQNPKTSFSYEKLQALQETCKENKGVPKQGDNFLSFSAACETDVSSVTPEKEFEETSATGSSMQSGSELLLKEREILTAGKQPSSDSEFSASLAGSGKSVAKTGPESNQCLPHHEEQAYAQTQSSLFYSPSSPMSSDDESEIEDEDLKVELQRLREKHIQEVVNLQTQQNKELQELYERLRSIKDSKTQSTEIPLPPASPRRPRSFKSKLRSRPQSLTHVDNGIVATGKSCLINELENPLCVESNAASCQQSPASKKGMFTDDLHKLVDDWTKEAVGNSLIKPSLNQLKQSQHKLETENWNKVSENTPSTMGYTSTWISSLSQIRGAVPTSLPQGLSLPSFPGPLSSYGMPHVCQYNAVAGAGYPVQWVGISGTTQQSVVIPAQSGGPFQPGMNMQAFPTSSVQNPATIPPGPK
# T8 sequence (P37173 23-567): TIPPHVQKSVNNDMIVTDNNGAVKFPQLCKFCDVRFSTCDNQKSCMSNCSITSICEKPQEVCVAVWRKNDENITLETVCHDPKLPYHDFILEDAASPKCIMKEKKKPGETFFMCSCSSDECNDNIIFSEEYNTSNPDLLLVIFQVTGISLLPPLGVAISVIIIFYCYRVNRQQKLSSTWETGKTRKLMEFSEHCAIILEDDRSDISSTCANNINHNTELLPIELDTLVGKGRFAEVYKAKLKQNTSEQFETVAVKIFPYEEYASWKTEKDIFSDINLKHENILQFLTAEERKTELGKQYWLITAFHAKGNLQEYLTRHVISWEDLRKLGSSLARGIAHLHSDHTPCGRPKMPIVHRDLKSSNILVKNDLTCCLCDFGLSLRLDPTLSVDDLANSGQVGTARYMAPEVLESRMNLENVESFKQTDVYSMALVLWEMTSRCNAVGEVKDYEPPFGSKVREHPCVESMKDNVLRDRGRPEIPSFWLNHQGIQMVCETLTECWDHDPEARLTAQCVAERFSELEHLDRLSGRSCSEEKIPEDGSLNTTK
smiles,measurement,setting,value
CCN1CCN(C(=O)c2ccc(Nc3ncc(F)c(-c4ccc5nc(N(C)C)sc5c4)n3)nc2)CC1 [YK-2-69],% Enzyme Activity (relative to DMSO controls),[1],101.30% and 99.93%
same,remaining activity at 1 µM,[2],105%
same,remaining activity at 1 µM,[3],99.7%
same,% Enzyme Activity (relative to DMSO controls),[4],102.42% and 102.08%
same,remaining activity at 1 µM,[5],98.5%
same,remaining activity at 1 µM,[6],88.6%
same,remaining activity at 1 µM,[7],106%
same,remaining activity at 1 µM,[8],104%
same,remaining activity at 1 µM,[9],87.2%
same,remaining activity at 1 µM,[10],103%
same,remaining activity at 1 µM,[11],73.1%
same,remaining activity at 1 µM,[12],91.3%
same,remaining activity at 1 µM,[13],94.7%
same,remaining activity at 1 µM,[14],83%
same,remaining activity at 1 µM,[15],96.8%
same,remaining activity at 1 µM,[16],100%
same,remaining activity at 1 µM,[17],98.9%
same,remaining activity at 1 µM,[18],80.1%
same,remaining activity at 1 µM,[19],103%
same,remaining activity at 1 µM,[20],107%
same,remaining activity at 1 µM,[21],37.5%
